Experimental data published in PubChem BioAssay (NCI).
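Grown in 96-well plates, cells were treated for 48 hours with each compound at five concentrations. Insufficient inhibition: endpoint recorded as highest concentration tested. GI50 = concentration required for 50% inhibition of growth. The concentration for full growth arrest is given as TGI.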

Key:
Assay in all cases: DTP human tumour cell line panel, 48 h
[1] = tested on: HT29 colon
[2] = tested on: NCI-H522 lung
[3] = tested on: SK-OV-3 ovarian
[4] = tested on: CCRF-CEM leukemia
[5] = tested on: SNB-75 CNS
[6] = tested on: MALME-3M melanoma
[7] = tested on: IGROV1 ovarian
[8] = tested on: NCI-H460 lung
[9] = tested on: SNB-19 CNS
[10] = tested on: SK-MEL-2 melanoma

Compound | GI50 [1] [µM] | TGI [1] [µM] | GI50 [2] [µM] | TGI [2] [µM] | GI50 [3] [µM] | TGI [3] [µM] | GI50 [4] [µM] | TGI [4] [µM] | GI50 [5] [µM] | TGI [5] [µM] | GI50 [6] [µM] | TGI [6] [µM] | GI50 [7] [µM] | TGI [7] [µM] | GI50 [8] [µM] | TGI [8] [µM] | GI50 [9] [µM] | TGI [9] [µM] | GI50 [10] [µM] | TGI [10] [µM]
C#CCN(Cc1nc2cc(C(F)(F)F)ccc2nc1-c1ccccc1)c1ccc(F)cc1 | 34.9 | > 100 | 22.4 | > 100 | 33.4 | > 100 | 27.1 | > 100 | 90.3 | > 100 | 17.9 | 53.5 | 23.1 | > 100 | 27.8 | > 100 | 34.9 | > 100 |  | 
O=C(Nc1ccc(-n2ccc3c(NC(=O)c4ccccc4)nccc32)cc1)c1ccc(N2CCOCC2)c(C(F)(F)F)c1 | 0.0476 | 3.71 | 0.363 | 18.2 | 0.509 | 28.2 | 0.44 | > 100 | 0.518 | 13.9 | 5.96 | 41.1 | 0.192 | > 42.6 | 0.0129 | 1.35 | 0.481 | > 81 | 0.236 | 15.8
CC(C)=CCC/C(C)=C/CC/C(C)=C/C1CCC(=O)C1(C)C (stereo unspecified) |  | 32.4 |  | 29 |  | 81 |  | 35.4 |  | 81.9 |  | 37.5 |  | 39.4 |  | 32.6 |  | 65.2 |  | 34.1
OCCCCCNc1ccnc2cc(Cl)ccc12 |  | > 100 |  | > 100 |  | > 100 |  | > 100 |  | > 100 |  | > 100 |  | > 100 |  | > 100 |  | > 100 |  | > 100
COc1ccc2c(c1OC)C(C=C(c1ccccc1)c1ccccc1)CN(C)C2 (stereo unspecified) |  | 42.7 |  | 41.5 |  | > 100 |  | 56.6 |  | > 100 |  | 38.1 |  | 43.5 |  | 31.9 |  | > 100 |  | 
CSC1SCC2C(=O)N(C)C(C(C)C)C(=O)OCC(NC(=O)c3cnc4ccccc4n3)C(=O)NC(C)C(=O)N(C)C1C(=O)N(C)C(C(C)C)C(=O)OCC(NC(=O)c1cnc3ccccc3n1)C(=O)NC(C)C(=O)N2C (stereo unspecified) | < 0.001 |  | < 0.001 |  | 0.00174 |  | < 0.001 |  |  |  | < 0.001 |  | < 0.001 |  | < 0.001 |  | < 0.001 |  |  | 0.00126
COc1c(Cl)[c]([Hg][O]C(C)=O)c(NCC(C)=O)c(OC)[c]1[Hg][O]C(C)=O | 19.5 | 48.2 | 1.37 | 4 | 24.5 | 45.6 | 10.3 | 34.4 | 13.9 | 32.5 | 2.7 | 7.89 | 15.6 | 31.6 | 33.2 | > 100 | 3.53 | 11.2 | 11.9 | 24.9
CC(C)(C)C1CCC(=O)C(C(O)CC2CC(=O)N(c3ccccc3)C(=O)C2)C1 (stereo unspecified) |  | > 100 |  | > 100 |  | > 100 |  | > 100 |  | > 100 |  | > 100 |  | > 100 |  | > 100 |  | > 100 |  | 
CCCC(=O)Nc1c(I)cc(I)c(CC(CC)C(=O)O)c1I (stereo unspecified) | > 100 | > 100 | > 100 | > 100 | > 100 | > 100 | > 100 | > 100 | > 100 | > 100 | > 100 | > 100 | > 100 | > 100 | > 100 | > 100 | > 100 | > 100 | > 100 | > 100
CC(C)C1NC(=O)[C@H](C)OC(=O)[C@@H](C(C)C)NC(=O)[C@@H](C)OC(=O)C(C(C)C)NC(=O)[C@H](C)OC1=O (stereo partly specified) |  | > 100 |  | > 100 |  | > 100 |  | > 100 |  | > 100 |  | > 100 |  | > 100 |  | > 100 |  | > 100 |  | > 100
CC(=Nc1ccccc1)C1=C(O)C(Cc2ccc(F)cc2)NC1=O (stereo unspecified) | 0.339 | > 100 | 0.237 | 2.1 | 1.23 | 9.01 | 1.81 | > 100 |  |  | 0.661 | > 100 | 1.71 | > 100 | 0.44 | > 100 | 4.75 | > 100 | 0.423 | > 100
S=C1SCN(C2CCCCCCCCCCC2)CN1C1CCCCCCCCCCC1 |  | > 100 |  | > 100 |  | > 100 |  | > 100 |  | > 100 |  | > 100 |  | > 100 |  | > 100 |  | > 100 |  | > 100
CC(=O)OC1(C#N)CC2OC1C1N=NN(C(=O)OC(C)(C)C)C21 (stereo unspecified) |  | > 100 |  | > 100 |  | > 100 |  | 83.8 |  | > 100 |  | > 68.2 |  | > 31.6 |  | > 100 |  | > 100 |  | > 100
COc1cc2c(cc1OC)-c1ncc3cc(OC)c(OC)cc3c1C2 | > 50 | > 50 | 24.5 | > 50 | > 50 | > 50 | 25.9 | > 50 | > 50 | > 50 |  |  | 20.2 | > 50 | > 50 | > 50 | > 50 | > 50 | > 50 | > 50
CC(C)=CCc1c(O)c(C(=O)CC(C)C)c(O)c2c(-c3ccccc3)cc(=O)oc12 | 14.1 | > 50 | 7.02 | 28.2 | 10.3 | 35.1 | 5.11 | > 50 | 9.27 | 41.9 | 10.8 | 33.9 | 9.7 | > 50 | 8.03 | > 50 | 10.3 | > 50 | 6.18 | 28.7
[N-]=[N+]=NC1C2CC3CC(C2)CC1C3 (stereo unspecified) |  | > 100 |  | > 100 |  | > 100 |  | > 100 |  | > 100 |  | > 100 |  | > 100 |  | > 100 |  | > 100 |  | > 100
